In test [1] the test system is Trichophyton mentagrophytes IFO 5810. Nature of the test: In vitro antimicrobial activity on Trichophyton mentagrophytes. Format: cell-based. The arrangement: key: A: Fungus is not observed at all with the naked eye.; B: Presence of fungus is slightly observed on shaking the test tube.; C: Fungus of about less than one-fourth that of the DMSO control group is observed with the naked eye.; Fungus of about less than half that of the DMSO control group is observed with the naked eye. The note with it: 10 (ppm); SGB, 27° C., 7 days. On the procedure:
3-3 In vitro antimicrobial activity on Trichophyton mentagrophytes To Trichophyton mentagrophytes IFO 5810 precultured at 27° C. for 2 to 3 weeks on a Sabouraud's glucose agar (SGA) slant medium was added a sterilized physiological salt solution containing 0.1% (W/V) Tween 80. After conidia were made free from the solution, the solution was filtered through a sterilized two-sheet gauze to remove the mycelium mass. The number of the conidia in the resulting suspension was counted with a globulimeter and adjusted so as to be 1×10^6 conidia/ml with a sterilized physiological salt solution containing 0.1%(W/V) Tween 80. This solution was used as an inoculum solution. Thereafter, 0.1 ml of this solution and 0.1 ml of the dimethyl sulfoxide (DMSO) solution of the test compound were added to 9.8 ml of Sabouraud's glucose broth (SGB), and shake-cultured at 27° C. for 7 days.

The subject of test [2] is Gibberella fujikuroi ("Bakanae" disease of rice). Nature of the test: Test for rice seed-disinfecting effect. Format: in vivo. The note with it: Fusarium fujikuroi, 504 h, seed immersion 25° C. 24 hours, three weeks after treatment, read-out: Controlling effect (control of disease), "Bakanae" disease of rice. The method, boiled down:
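Bakanae-infected unhulled rice seed soaked 24 hours at 25° C in 1000 ppm compound, then sown and germinated two days. Infected-seedling rate scored three weeks after treatment; control calculated against untreated plot and graded on a standard scale.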

The subject of test [3] is Rhizopus nigricans. Nature of the test: Test for wood rotting-preventing effect (mycelium growth inhibition on malt extract agar). Conditions: Rhizopus stolonifer, 28° C.±2° C., 2 to 10 days, read-out: Rotting preventing effect (mycelium growth-inhibitory rate), RHN. It is filed as cell-based. The method, boiled down: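 Mycelial agar disks (4 mm) placed on malt extract agar containing 50 ppm test compound and grown at 28 °C ± 2 °C. Colony diameter measured 2-10 days after inoculation; mycelium growth-inhibitory rate (%) reported as a symbol score.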

In test [4] the test system is Rhizoctonia solani. Description: Test for controlling effect on sheath blight of rice. Conditions: 120 h, 200 ppm spray, 24 hours after inoculation, rice 4-leaf stage, five days after inoculation, read-out: Controlling effect (control of disease), Sheath blight of rice. It is filed as in vivo. The method, boiled down: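 Rice seedlings at the 4-leaf stage were inoculated with mycelium, then sprayed 24 h later with compound at 200 ppm. After air-drying, plants were held 24 h at 28 °C and 98% humidity, then moved to a greenhouse. Infected area was scored 5 days post-inoculation; control was calculated relative to untreated plants.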

The subject of test [5] is Aspergillus niger. Nature of the test: Test for wood rotting-preventing effect (mycelium growth inhibition on malt extract agar). Format: cell-based. The note with it: 28° C.±2° C., 2 to 10 days, read-out: Rotting preventing effect (mycelium growth-inhibitory rate), ASN. A digest of the protocol:
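Mycelial agar disks (4 mm) placed on malt extract agar containing 50 ppm test compound, incubated at 28° C.±2° C. Colony diameter measured 2–10 days after inoculation; growth-inhibitory rate (%) reported as symbol-coded score.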

Test [6] relates to Aspergillus fumigatus TIMM 0063. Nature of the test: In vitro antimycotic activity on Aspergillus fumigatus. Format: cell-based. Conditions: TIMM0063, 10 (ppm), Casitone agar, 37° C., 48 hours, read-out: Antimycotic activity (growth inhibitory rate), A.fumigatus. On the procedure:
3-2 In vitro antimycotic activity on Aspergillus fumigatus.
To Aspergillus fumigatus TIMM 0063 precultured at 37° C. for 48 hours on a potato dextrose agar (PDA) slant medium was added a sterilized physiological salt solution containing 0.1%(W/V) Tween 80. After conidia were made free from the solution, the solution was filtered through a sterilized two-sheet gauze to remove the mycelium mass. The number of the conidia in the resulting suspension was counted with a globulimeter and adjusted so as to be 1×10^5 conidia/ml with a sterilized physiological salt solution containing 0.1%(W/V) Tween 80. This solution was used as an inoculum solution. Casitone agar plate medium containing the DMSO solution of the test compound in a rate of 1% (V/V) was inoculated with the inoculum solution at four places thereof with a microplanter, and cultured with the medium allowed to stand at 37° C. for 48 hours. After culture, the diameter of the mycelium disks cultivated at the four inoculated parts was measured, and its mean value was obtained. The growth inhibitory rate was calculated according to the following equation, and the antimycotic activity was shown in the same manner as in Test Example 3-1.
Growth inhibitory rate (%)=(1-W'/Y')×100
Y': Diameter of mycelium disk of DMSO control group
W': Diameter of mycelium disk of test compound group

Test [7] deals with Trichoderma viride. Description: Test for wood rotting-preventing effect (mycelium growth inhibition on malt extract agar). It is filed as cell-based. The note with it: 28° C.±2° C., 2 to 10 days, read-out: Rotting preventing effect (mycelium growth-inhibitory rate), TRV. A digest of the protocol: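 Mycelial agar disks (4 mm) placed on malt extract agar containing 50 ppm test compound and cultured at 28 °C ± 2 °C. Colony diameter measured 2–10 days after inoculation; growth-inhibitory rate (%) reported as symbol grades.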

With `N#Cc1c(OC(F)F)nsc1OCCC#CI` [Compound 82], the “Antimycotic activity (degree of growth, naked eye), T.mentagrophytes” value (from here on “Antimycotic activity”) in test [1] was “A”. Moreover, in test [2], the pest or weed control at 1000 ppm lay in the range of 95 to 100%. For the same compound, the inhibition at 50 ppm in test [3], in test [5] and in test [7] was 95 to 100% throughout. Also, in test [4], the pest or weed control at 200 ppm lay within 95 to 100%. Further, in test [6], the inhibition of growth at 10 µg/mL stood at 100%.

Turning to `CSc1snc(OCCC#CI)c1C#N` [Compound 70], the “Antimycotic activity” value in test [1] is given as “A”. The pest or weed control at 1000 ppm in test [2] was in the range of 80 to 94%. Moreover, the inhibition at 50 ppm was 80 to 94% in test [3], 95 to 100% in test [5] and 95 to 100% in test [7]. Besides, the pest or weed control at 200 ppm in test [4] fell in the range of 95 to 100%. Further, in test [6], the inhibition of growth at 10 µg/mL is 100%.

As to `N#Cc1c(OC(F)F)nsc1SCOCC#CI` [Compound 60], the “Antimycotic activity” value in test [1] is “A”. In test [2], the pest or weed control at 1000 ppm lay within 95 to 100%. Also, the inhibition at 50 ppm in test [3], in test [5] and in test [7] was 95 to 100% in each case. Also, the pest or weed control at 200 ppm in test [4] lay in the range of 95 to 100%. For the same compound, in test [6], the inhibition of growth at 10 µg/mL is 100%.

Regarding `CS(=O)(=O)c1snc(OCC#CI)c1C#N` [Compound 41, 3-(3-iodo-2-propynyloxy)-4-cyano-5-methylsulfonylisothiazole], in test [1], the “Antimycotic activity” value is recorded as “A”. Besides, in test [2], the pest or weed control at 1000 ppm was 95 to 100%. Moreover, the inhibition at 50 ppm in test [3], in test [5] and in test [7] was 95 to 100% each time. Also, in test [4], the pest or weed control at 200 ppm lay in the range of 80 to 94%. Besides, in test [6], the inhibition of growth at 10 µg/mL turned out to be 100%.

As to `CC(C)Oc1snc(OCC#CI)c1C#N` [Compound 23], the “Antimycotic activity” value in test [1] is given as “A”. In test [2], the pest or weed control at 1000 ppm lay within 95 to 100%. In addition, the inhibition at 50 ppm in test [3], in test [5] and in test [7] was 95 to 100% in each case. Moreover, in test [4], the pest or weed control at 200 ppm lay in the range of 80 to 94%. Further, the inhibition of growth at 10 µg/mL in test [6] amounted to 100%.

For `N#Cc1c(OCOCC#CI)nsc1SC(F)F` [Compound 90], the “Antimycotic activity” value in test [1] is on record as “A”. Also, in test [2], the pest or weed control at 1000 ppm lay within 95 to 100%. Further, the inhibition at 50 ppm in test [3], in test [5] and in test [7] was 95 to 100% each time. In addition, the pest or weed control at 200 ppm in test [4] fell in the range of 95 to 100%. The inhibition of growth at 10 µg/mL in test [6] worked out at 100%.

For the compound `CCOc1snc(OCOCC#CI)c1C#N` [Compound 96], the “Antimycotic activity” value in test [1] is listed as “A”. Besides, the pest or weed control at 1000 ppm in test [2] lay in the range of 95 to 100%. In addition, the inhibition at 50 ppm in test [3], in test [5] and in test [7] was 95 to 100% throughout. Further, the pest or weed control at 200 ppm in test [4] is 95 to 100%. Further, the inhibition of growth at 10 µg/mL in test [6] is 100%.

As to `CCOc1nsc(SCOCC#CI)c1C#N` [Compound 54], in test [1], the “Antimycotic activity” value is recorded as “A”. The pest or weed control at 1000 ppm in test [2] lay within 95 to 100%. Also, the inhibition at 50 ppm in test [3], in test [5] and in test [7] was 95 to 100% each time. In addition, the pest or weed control at 200 ppm in test [4] lay in the range of 95 to 100%. The inhibition of growth at 10 µg/mL in test [6] is 100%.

In the case of `CSc1snc(OCC#CI)c1C#N` [Compound 1, 3-(3-iodo-2-propynyloxy)-4-cyano-5-methylthioisothiazole], the “Antimycotic activity” value in test [1] is on record as “A”. Moreover, the pest or weed control at 1000 ppm in test [2] is 95 to 100%. The inhibition at 50 ppm in test [3] was 95 to 100%; in test [5], 80 to 94%; in test [7], 95 to 100%. Also, in test [4], the pest or weed control at 200 ppm lay within 60 to 79%. The inhibition of growth at 10 µg/mL in test [6] worked out at 100%.

For `COc1snc(OCC#CI)c1C#N` [Compound 21, 3-(3-iodo-2-propynyloxy)-4-cyano-5-methoxyisothiazole], the “Antimycotic activity” value in test [1] was “A”. The pest or weed control at 1000 ppm in test [2] is 95 to 100%. Further, the inhibition at 50 ppm in test [3], in test [5] and in test [7] was 95 to 100% in each case. Besides, the pest or weed control at 200 ppm in test [4] fell in the range of 95 to 100%. For the same compound, the inhibition of growth at 10 µg/mL in test [6] came to 100%.

`CN(C)c1snc(OCC#CI)c1C#N` [Compound 30, 3-(3-iodo-2-propynyloxy)-4-cyano-5-dimethylaminoisothiazole]: in test [1], the “Antimycotic activity” value is given as “A”. The pest or weed control at 1000 ppm in test [2] was 95 to 100%. Moreover, the inhibition at 50 ppm in test [3], in test [5] and in test [7] was 95 to 100% in each case. The pest or weed control at 200 ppm in test [4] lay within 95 to 100%. For the same compound, in test [6], the inhibition of growth at 10 µg/mL turned out to be 100%.

With `N#Cc1c(OCC#CI)nsc1SC(F)F` [Compound 12, 3-(3-iodo-2-propynyloxy)-4-cyano-5-difluoromethylthioisothiazole], in test [1], the “Antimycotic activity” value is “A”. Also, in test [2], the pest or weed control at 1000 ppm lay in the range of 95 to 100%. Moreover, the inhibition at 50 ppm in test [3], in test [5] and in test [7] was 95 to 100% throughout. Moreover, in test [4], the pest or weed control at 200 ppm lay within 80 to 94%. The inhibition of growth at 10 µg/mL in test [6] was determined as 100%.

As for `CSc1snc(OC(C)OCC#CI)c1C#N` (stereo not shown) [Compound 119], the “Antimycotic activity” value in test [1] is reported as “A”. For the same compound, the pest or weed control at 1000 ppm in test [2] lay in the range of 95 to 100%. The inhibition at 50 ppm in test [3] fell in the range of 80 to 94%; in test [5], 95 to 100%; in test [7] it was 95 to 100%. The pest or weed control at 200 ppm in test [4] is 80 to 94%. Further, the inhibition of growth at 10 µg/mL in test [6] was determined as 100%.

For `CSc1nsc(SCOCC#CI)c1C#N` [Compound 136], the “Antimycotic activity” value in test [1] is recorded as “A”. In test [2], the pest or weed control at 1000 ppm fell in the range of 80 to 94%. Moreover, the inhibition at 50 ppm in test [3], in test [5] and in test [7] was 95 to 100% throughout. For the same compound, the pest or weed control at 200 ppm in test [4] is 80 to 94%. The inhibition of growth at 10 µg/mL in test [6] was 100%.

With `COc1nsc(OCC#CI)c1C#N` [Compound 48], the “Antimycotic activity” value in test [1] was “A”. For the same compound, in test [2], the pest or weed control at 1000 ppm was 95 to 100%. The inhibition at 50 ppm in test [3], in test [5] and in test [7] was 95 to 100% each time. In test [4], the pest or weed control at 200 ppm lay within 95 to 100%. In addition, the inhibition of growth at 10 µg/mL in test [6] was found to be 100%.

In the case of `N#Cc1c(OCC#CI)nsc1S(=O)(=O)C(F)F` [Compound 43], the “Antimycotic activity” value in test [1] is on record as “A”. The pest or weed control at 1000 ppm in test [2] was 95 to 100%. Moreover, the inhibition at 50 ppm in test [3], in test [5] and in test [7] was 95 to 100% in each case. Also, the pest or weed control at 200 ppm in test [4] lay in the range of 95 to 100%. In addition, in test [6], the inhibition of growth at 10 µg/mL came to 100%.

The values above are taken from patent US5578622A, “Isothiazole derivatives and their uses” (Asamura Patent Office, priority 1994, dated 1996).
